Reference: US20130065818A1, “Arylamide Compounds And Compositions And Uses Thereof” (POLYMEDIX, priority 2006, published 2013)
Where two headings read alike, the source gives them in different places.

Assays:
[1] = tested on: Staphylococcus aureus fluoroquinolone-resistant; experiment: MIC, 25 ocular isolates, broth microdilution (Example 8); type: cell-based
Procedure: (§1) • Mueller-Hinton Broth in tubes was inoculated with 25 ocular isolates of Staphylococcus aureus fluoroquinolone-susceptible, Staphylococcus aureus fluoroquinolone-resistant, Staphylococcus epidermidis (Coagulase-negative Staphylococcus) fluoroquinolone-susceptible, Staphylococcus epidermidis (Coagulase-negative Staphylococcus) fluoroquinolone-resistant, Pseudomonas aeruginosa and Serratia marcescens, plus two controls (Staphylococcus aureus and E. coli) and incubated at 37° C. overnight on a shaker set at 250 rpm.
(§2) On the day of testing, a 640 μg/ml (1280 μg/ml for Serratia marcescens and Pseudomonas aeruginosa) concentration was prepared from a 1% stock solution in 0.01% acetic acid, 0.2% BSA in polypropylene tubes.
(§3) Serial doubling dilutions in 0.01% acetic acid, 0.2% BSA in 96 well polypropylene plates, which are used as reservoirs for the inoculation of the test plates, were carried out to obtain serial dilutions of test agents at 10 times the required test concentrations: 640, 320, 160, 80, 40, 20, 10, 5, 2.5, 1.25, and 0.625 μg/ml (1280, 640, 320, 160, 80, 40, 20, 10, 5, 2.5, and 1.25 μg/ml for Serratia marcescens and Pseudomonas aeruginosa).
(§4) Ten μl of diluted 10×test agents was added to each well of one row of the 96 well polypropylene plates from column 2 to column 12 (column 1 is a control for bacteria alone, with no peptide). Test agent concentrations in columns 2-12 were as follows: 64, 32, 16, 8, 4, 2, 1, 0.5, 0.25, 0.125, and 0.0625 μg/ml (128, 64, 32, 16, 8, 4, 2, 1, 0.5, 0.25, and 0.125 μg/ml for Serratia marcescens and Pseudomonas aeruginosa). The same peptide was in each of the 8 rows. One plate contained dilutions of one test agent and 8 bacterial isolates.
(§5) On the day of testing, the overnight bacterial broth cultures of Staphylococcus aureus fluoroquinolone-susceptible, Staphylococcus aureus fluoroquinolone-resistant, Staphylococcus epidermidis (Coagulase-negative Staphylococcus) fluoroquinolone-susceptible, Staphylococcus epidermidis (Coagulase-negative Staphylococcus) fluoroquinolone-resistant, Serratia marcescens, and Pseudomonas aeruginosa, plus two controls (Staphylococcus aureus and E. coli) were diluted in 5 ml of trypticase soy broth to yield turbidity equal to a 0.5 McFarland standard. The final inoculum for MIC testing for Staphylococcus aureus fluoroquinolone-susceptible, Staphylococcus aureus fluoroquinolone-resistant, Staphylococcus epidermidis (Coagulase-negative Staphylococcus) fluoroquinolone-susceptible, Staphylococcus epidermidis (Coagulase-negative Staphylococcus) fluoroquinolone-resistant, Serratia marcescens, and Pseudomonas aeruginosa was achieved by placing 0.05 ml of the turbidity adjusted sample to 5 ml of Mueller-Hinton broth.
(§6) Ninety μl of the bacterial suspensions was dispensed in each well from column 1 to column 12. Each bacterial isolate was placed in one row of a 96 well polypropylene plate containing the test agents. The plates were placed on shaker at 15 minutes at room temperature, and then incubated at 37° C. overnight. MICs were determined visually as the lowest concentration of drug that inhibits visible bacterial growth.

[2] = tested on: Staphylococcus epidermidis (Coagulase-negative Staphylococcus) fluoroquinolone-susceptible; experiment: as above; type: cell-based
Procedure: as §1, §2, §3, §4, §5, §6

N=C(N)NCCCCC(=O)Nc1cc(C(F)(F)F)cc(NC(=O)c2cc(C(=O)Nc3cc(C(F)(F)F)cc(NC(=O)CCCCNC(=N)N)c3O[C@@H]3CCNC3)ncn2)c1O[C@@H]1CCNC1 [Oligomer 4]
0.5 µg/mL: MIC90 ([1]; 25 isolates, Row 22) | MIC ([1]; Staphylococcus aureus, isolate 4—E427, read-out: MIC) | MIC ([1]; Staphylococcus aureus, isolate 12—E379, read-out: MIC) | MIC ([1]; Staphylococcus aureus, isolate 18—E327, read-out: MIC) | MIC ([1]; Staphylococcus aureus, isolate 19—E325, read-out: MIC) | MIC ([1]; Staphylococcus aureus, isolate 20—K950, read-out: MIC) | MIC90 ([1]; Staphylococcus aureus, 25 isolates, Summary of Results, read-out: MIC90) | MIC90 ([1]; n=25 per group)
< 0.0625 µg/mL: MIC ([2]; Staphylococcus epidermidis, isolate 10—E443, read-out: MIC) | MIC ([2]; Staphylococcus epidermidis, isolate 11—E441, read-out: MIC) | MIC ([2]; Staphylococcus epidermidis, isolate 16—E430, read-out: MIC)
0.03125 to 0.25 µg/mL: Range of MICs ([2]; 25 isolates, Summary of Results, <0.0625 was Replaced with 0.03125) | Range of MICs ([2]; n=25 per group)
0.25 µg/mL: MIC50 ([1]; 25 isolates, Row 13) | MIC ([1]; Staphylococcus aureus, isolate 1—E504, read-out: MIC) | MIC ([1]; Staphylococcus aureus, isolate 2—E475, read-out: MIC) | MIC ([1]; Staphylococcus aureus, isolate 3—E442, read-out: MIC) | MIC ([1]; Staphylococcus aureus, isolate 5—E425, read-out: MIC) | MIC ([1]; Staphylococcus aureus, isolate 6—E424, read-out: MIC) | MIC ([1]; Staphylococcus aureus, isolate 8—E407, read-out: MIC) | MIC ([1]; Staphylococcus aureus, isolate 9—E401, read-out: MIC) | MIC ([1]; Staphylococcus aureus, isolate 10—K1659, read-out: MIC) | MIC ([1]; Staphylococcus aureus, isolate 14—E361, read-out: MIC) | MIC ([1]; Staphylococcus aureus, isolate 15—E339, read-out: MIC) | MIC ([1]; Staphylococcus aureus, isolate 16—E333, read-out: MIC) | MIC ([1]; Staphylococcus aureus, isolate 17—E332, read-out: MIC) | MIC ([1]; Staphylococcus aureus, isolate 21—K839, read-out: MIC) | MIC ([1]; Staphylococcus aureus, isolate 22—K1679, read-out: MIC) | MIC ([1]; Staphylococcus aureus, isolate 23—K1677, read-out: MIC) | MIC ([1]; Staphylococcus aureus, isolate 24—K1672, read-out: MIC) | MIC ([1]; Staphylococcus aureus, isolate 25—K1670, read-out: MIC) | MIC ([1]; Staphylococcus aureus, n=25 per group, read-out: Median MIC) | MIC50 ([1]; Staphylococcus aureus, 25 isolates, Summary of Results, read-out: MIC50) | MIC ([1]; Staphylococcus aureus, 25 isolates, Summary of Results, read-out: Median MIC) | MIC50 ([1]; n=25 per group) | MIC, sorted list for MIC50 and MIC90 Determinations (QSSE-A) ([2]; 25 isolates sorted ascending, Row 1-25, <0.0625 was Replaced with 0.03125) | MIC90 ([2]; 25 isolates, Row 22) | MIC ([2]; Staphylococcus epidermidis, isolate 1—E511, read-out: MIC) | MIC ([2]; Staphylococcus epidermidis, isolate 4—E476, read-out: MIC) | MIC ([2]; Staphylococcus epidermidis, isolate 5—E473, read-out: MIC) | MIC ([2]; Staphylococcus epidermidis, isolate 22—E328, read-out: MIC) | MIC ([2]; Staphylococcus epidermidis, isolate 25—E372, read-out: MIC) | MIC90 ([2]; Staphylococcus epidermidis, 25 isolates, Summary of Results, read-out: MIC90) | MIC90 ([2]; n=25 per group)
0.125 µg/mL: MIC ([1]; Staphylococcus aureus, isolate 11—E96, read-out: MIC) | MIC ([1]; Staphylococcus aureus, isolate 13—E369, read-out: MIC) | MIC50 ([2]; 25 isolates, Row 13) | MIC ([2]; Staphylococcus epidermidis, isolate 2—E489, read-out: MIC) | MIC ([2]; Staphylococcus epidermidis, isolate 3—E491, read-out: MIC) | MIC ([2]; Staphylococcus epidermidis, isolate 6—E462, read-out: MIC) | MIC ([2]; Staphylococcus epidermidis, isolate 7—E460, read-out: MIC) | MIC ([2]; Staphylococcus epidermidis, isolate 8—E453, read-out: MIC) | MIC ([2]; Staphylococcus epidermidis, isolate 9—E448, read-out: MIC) | MIC ([2]; Staphylococcus epidermidis, isolate 12—E438, read-out: MIC) | MIC ([2]; Staphylococcus epidermidis, isolate 13—E437, read-out: MIC) | MIC ([2]; Staphylococcus epidermidis, isolate 14—E434, read-out: MIC) | MIC ([2]; Staphylococcus epidermidis, isolate 15—E433, read-out: MIC) | MIC ([2]; Staphylococcus epidermidis, isolate 17—E420, read-out: MIC) | MIC ([2]; Staphylococcus epidermidis, isolate 18—E419, read-out: MIC) | MIC ([2]; Staphylococcus epidermidis, isolate 19—E403, read-out: MIC) | MIC ([2]; Staphylococcus epidermidis, isolate 20—E394, read-out: MIC) | MIC ([2]; Staphylococcus epidermidis, isolate 21—E393, read-out: MIC) | MIC ([2]; Staphylococcus epidermidis, isolate 23—E382, read-out: MIC) | MIC ([2]; Staphylococcus epidermidis, isolate 24—E381, read-out: MIC) | MIC ([2]; Staphylococcus epidermidis, n=25 per group, read-out: Median MIC) | MIC50 ([2]; Staphylococcus epidermidis, 25 isolates, Summary of Results, read-out: MIC50) | MIC ([2]; Staphylococcus epidermidis, 25 isolates, Summary of Results, read-out: Median MIC) | MIC50 ([2]; n=25 per group)
1 µg/mL: MIC ([1]; Staphylococcus aureus, isolate 7—E417, read-out: MIC)
≤ 0.25 µg/mL: MIC ([1]; Staphylococcus aureus, 25 ocular isolates, read-out: Median MIC) | MIC ([2]; Staphylococcus epidermidis, 25 ocular isolates, read-out: Median MIC)
0.125 to 1.0 µg/mL: Range of MICs ([1]; 25 isolates, Summary of Results) | Range of MICs ([1]; n=25 per group)
